Patent US20220117938A1, “COMBINATON THERAPY WITH A DON PRODRUG AND AN IMMUNE CHECKPOINT INHIBITOR” (DRACEN PHARMACEUTICALS, INC., priority 2019, published 2022)

Tested on: Ninety four (94) cell lines and PBMC
Assay: Cell viability assay, SRB staining, 94 cell lines and PBMC (Example 7, Experiment 2)
Type: cell-based
Procedure: Ninety four (94) cell lines were seeded at a density varying from 500 to 7000 cells/well depending on their growth characteristics. PBMC were seeded at the density 50,000-100,000 cells/well. Cells were incubated for 48 h prior to compound treatment. Compound 1 and DON were evaluated at a concertation range of 1 nM up to 100 μM. Compound 1 dilutions in DMSO and DON dilutions in PBS were performed in 96-well 0.5 mL plates (Greiner Bio-One, Germany). Compounds were then diluted 1:100 in RPMI medium. […] of cells were treated by mixing with 10 μL of the compound-containing media (resulting in a final DMSO concentration of 0.1%). The cells were allowed to grow at 37° C. for 120 h. Cells were fixed to the surface by addition of 10% TCA (for adherent growing cells) or 50% TCA (for semi-adherent growing cells or cells growing in suspension). After an hour of incubation at 4° C., plates were washed twice with 400 μL of deionized water and dried. Cells were then stained with 100 μL of 0.04% wt/v SRB. The plates were incubated at room temperature for at least 30 min and washed six times with 1% acetic acid to remove unbound stain. The plates were left to dry at room temperature and bound SRB was solubilized with 100 μL of 10 mM Tris base. Optical density was measured at 492, 520 and 560 nm using a Deelux-LED96 plate reader (Deelux Labortechnik GmbH, Germany).
Cell lines were purchased directly from the ATCC, NCI, CLS, and DSMZ cell line collections. A master bank and working aliquots were prepared. Cells used for the study had undergone less than 20 passages. To rule out potential contamination or wrong assignment, all cell lines were tested by STR analysis. Absence of mycoplasma contamination was confirmed for all cell lines used in the studies.
The cell lines were grown in the media recommended by the suppliers in the presence of 100 U/mL penicillin and 100 μg/mL streptomycin supplied with 10% FCS (PAA, Germany). RPMI 1640, DMEM, and MEM Earle's medium were from PAA (Coelbe, Germany), supplements 2 mM L-glutamine, 1 mM Na-pyruvate and 1% NEAA were from PAA (Coelbe, Germany), 2.5% horse serum, hydrocortisone, transferin, beta-estradiol, selenite and 1 U/mL insulin from Sigma-Aldrich (Munich, Germany). RPMI medium was used for culturing the following cell lines: 5637, 22RV1, 7860, A2780, A431, A549, ACHN, ASPC1, BT20, BXPC3, CAKI1, CLS439, COLO205, COLO678, DLD1, DU145, EFO21, EJ28, HCT15, HS578T, IGROV1, JAR, LOVO, MCF7, MDA MB231, MDA MB435, MDA MB436, MDA MB468, MHHES1, MT3, NCI H292, NCI H358M, NCI H460, NCIH82, OVCAR3, OVCAR4, PANC 1005 (addition of insulin), PBMC, PC3, RDES, SF268, SF295, SKBR3, SK MEL28, SKMEL5, SKOV3, SW620, U2OS, UMUC3, and U031.
DMEM medium was used to culture A204, A375, A673, C33A, CASKI, HCT116, HEPG2, HS729, HT29, J82, MG63, MIAPACA2 (addition of horse serum), PANC1, PLCPRF5, RD, SAOS2, SKLMS1, SKNAS, SNB75, T24, and TE671.
MEM Earle's medium was used for CACO2, CALU6, HEK293, HELA, HT1080, IMR90, JEG3, JIMT1, SKHEP1, SKNSH, and U87MG. Cell seeding conditions were optimized for each cell line. The cell seeding density varied from 500 to 7000 cells/well depending on their growth characteristics. Peripheral blood mononuclear cells (PBMC) were freshly isolated from whole blood of an anonymous donor through density gradient centrifugation using Ficoll solution (d=1.077). In short, blood was diluted 1:1 with PBS and carefully placed on the Ficoll. After centrifugation 1000×g for 15 min (braking rate 0), the ring containing mainly leucocytes was collected in PBS followed by three times washing with PBS to reduce the platelets. PBMC were seeded at the density 50,000-100,000 cells/well. Cells were grown in 5% CO2 atmosphere in a NB-203XXL incubator (N-BIOTEK Inc., Korea).
Ninety-four cell lines were tested in parallel. Cell growth and treatment were performed in 96 well microtitre plates CELLSTAR® (Greiner Bio-One, Germany). […]

[1] = Homo sapiens, 22Rv1, 22RV1, prostate
[2] = Homo sapiens, 786-0, 786O, kidney
[3] = Homo sapiens, A204, A204, muscle
[4] = Homo sapiens, A673, A673, muscle
[5] = Homo sapiens, A2780, A2780, ovary
[6] = Homo sapiens, A-375, A375, skin
[7] = Homo sapiens, A-431, A431, skin
[8] = Homo sapiens, ASPC1, ASPC1, pancreas
[9] = Homo sapiens, BT-20, BT20, breast
[10] = Homo sapiens, C-33-A, C33A, endometrial
[11] = Homo sapiens, CAKI-1, CAKI1, kidney
[12] = Homo sapiens, COLO 205, COLO205, colon
[13] = Homo sapiens, Ca-Ski, CASKI, endometrial
[14] = Homo sapiens, Caco-2, CACO2, colon
[15] = Homo sapiens, Calu-6, CALU6, lung
[16] = Homo sapiens, DLD-1, DLD1, colon
[17] = Homo sapiens, DU-145, DU145, prostate
[18] = Homo sapiens, EFO-21, EFO21, ovary
[19] = Homo sapiens, EJ-28, EJ28, bladder
[20] = Homo sapiens, Granta-519, GRANTA-519, hematological
[21] = Homo sapiens, HCT-15, HCT15, colon
[22] = Homo sapiens, HCT-116, HCT116, colon
[23] = Homo sapiens, HEK293, HEK293, kidney
[24] = Homo sapiens, HL-60, HL-60, hematological
[25] = Homo sapiens, HT-29, HT29, colon
[26] = Homo sapiens, HT-1080, HT1080, connective tissue
[27] = Homo sapiens, HeLa, endometrial
[28] = Homo sapiens, HepG2, HEPG2, liver
[29] = Homo sapiens, IGROV-1, IGROV1, ovary
[30] = Homo sapiens, JEG-3, JEG3, placenta
[31] = Homo sapiens, JIMT-1, JIMT1, breast
[32] = Homo sapiens, K562, K-562, hematological
[33] = Homo sapiens, Kasumi 1, KASUMI-1, hematological
[34] = Homo sapiens, L-363, L-363, hematological
[35] = Homo sapiens, MCF7, MCF7, breast
[36] = Homo sapiens, MDA-MB-231, MDAMB231, breast
[37] = Homo sapiens, MDA-MB-435, MDAMB435, skin
[38] = Homo sapiens, MDA-MB-436, MDAMB436, breast

SMILES: CC(=O)N[C@@H](Cc1c[nH]c2ccccc12)C(=O)N[C@@H](CCC(=O)C=[N+]=[N-])C(=O)OC(C)C [Compound 1, Isopropyl (S)-2-((S)-2-acetamido-3-(1H-indol-3-yl)propanamido)-6-diazo-5-oxohexanoate]
- IC50 (5637, bladder): 2.43 µM
- IC50 (CLS439, bladder): 8.43 µM
- GI50 [1]: 1.02 µM
- IC50 [1]: 1.1 µM
- GI50 [2]: 3.34 µM
- IC50 [2]: 3.84 µM
- GI50 [3]: 2.65 µM
- IC50 [3]: 20.3 µM
- GI50 (Homo sapiens, A549, A549, lung): 9.04 µM
- IC50 (Homo sapiens, A549, A549, lung): 9.28 µM
- GI50 [4]: 3.49 µM
- IC50 [4]: 3.87 µM
- GI50 [5]: 3.04 µM
- IC50 [5]: 3.28 µM
- GI50 [6]: 4.13 µM
- IC50 [6]: 4.39 µM
- GI50 [7]: 14.2 µM
- IC50 [7]: 18.4 µM
- GI50 (Homo sapiens, ACHN, kidney): 7.88 µM
- IC50 (Homo sapiens, ACHN, kidney): 8.98 µM
- GI50 [8]: 5.96 µM
- IC50 [8]: 8.36 µM
- GI50 [9]: 20 µM
- IC50 [9]: 53.1 µM
- GI50 (Homo sapiens, BXPC-3, BXPC3, pancreas): 4.24 µM
- GI50 [10]: 7.46 µM
- IC50 [10]: 7.69 µM
- GI50 [11]: 5.3 µM
- IC50 [11]: 6.84 µM
- GI50 [12]: 2.73 µM
- IC50 [12]: 4.66 µM
- GI50 (Homo sapiens, COLO-678, COLO678, colon): 93 µM
- GI50 [13]: 5.9 µM
- IC50 [13]: 7.83 µM
- GI50 [14]: 19.4 µM
- IC50 [14]: 28.2 µM
- GI50 [15]: 5.88 µM
- IC50 [15]: 7.07 µM
- GI50 [16]: 9.25 µM
- IC50 [16]: 9.59 µM
- GI50 [17]: 8.82 µM
- IC50 [17]: 10.9 µM
- GI50 [18]: 6.86 µM
- IC50 [18]: 14.1 µM
- GI50 [19]: 5.82 µM
- IC50 [19]: 6.55 µM
- GI50 [20]: 0.687 µM
- IC50 [20]: 0.768 µM
- GI50 [21]: 20.1 µM
- IC50 [21]: 21.7 µM
- GI50 [22]: 1.31 µM
- IC50 [22]: 1.33 µM
- GI50 [23]: 9.21 µM
- IC50 [23]: 10.4 µM
- GI50 [24]: 1.09 µM
- IC50 [24]: 1.1 µM
- GI50 [25]: 0.88 µM
- IC50 [25]: 1.07 µM
- GI50 [26]: 2.61 µM
- IC50 [26]: 3.04 µM
- GI50 [27]: 11.8 µM
- IC50 [27]: 13.4 µM
- GI50 [28]: 7.87 µM
- IC50 [28]: 9.85 µM
- GI50 (Homo sapiens, Hs-578T, HS578T, breast): 36.4 µM
- GI50 [29]: 8.98 µM
- IC50 [29]: 10.7 µM
- GI50 (Homo sapiens, IMR-90, IMR90, lung): 14.6 µM
- GI50 [30]: 3.87 µM
- IC50 [30]: 4.78 µM
- GI50 [31]: 19.4 µM
- IC50 [31]: 40.6 µM
- GI50 [32]: 1.15 µM
- IC50 [32]: 1.2 µM
- GI50 [33]: 3.17 µM
- IC50 [33]: 7.95 µM
- GI50 [34]: 0.546 µM
- IC50 [34]: 0.717 µM
- GI50 (Homo sapiens, LoVo, colon): 5.16 µM
- IC50 (Homo sapiens, LoVo, colon): 5.55 µM
- GI50 [35]: 4.13 µM
- IC50 [35]: 8.59 µM
- GI50 [36]: 11.6 µM
- IC50 [36]: 14.6 µM
- GI50 [37]: 14.7 µM
- IC50 [37]: 15.2 µM
- GI50 [38]: 49.3 µM
- IC50 [38]: 131 µM
